# What was measured:
# Test in all cases: relative viability (nuclei count vs DMSO), 5 days (fraction); higher = more cells survive
# [1] = test system: NCI-H2347
# Summary of the method: (§1)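 The day after seeding in 1536-well plates, lung cancer cell lines were treated by pin tool with a single drug, or with a fixed anchor-drug dose together with five library-drug doses (not always all listed) in √10 steps. After 5 days, a combined fix-and-stain solution (final 0.05% Triton X-100, 1% formaldehyde, 1 ug/ml Hoechst) was added. Nuclei counted on 4× images gave relative viability as treated counts over vehicle counts, reported as the median of duplicate plates.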
# [2] = test system: LCLC-103H
# Summary of the method: as §1
# [3] = test system: NCI-H727
# Summary of the method: as §1
# [4] = test system: NCI-H2170
# Summary of the method: as §1
# [5] = test system: NCI-H520
# Summary of the method: as §1
# [6] = test system: NCI-H661
# Summary of the method: as §1
# [7] = test system: NCI-H650
# Summary of the method: as §1
# [8] = test system: NCI-H3122
# Summary of the method: as §1
# [9] = test system: RERF-LC-KJ
# Summary of the method: as §1
# [10] = test system: NCI-H1755
# Summary of the method: as §1
# [11] = test system: SK-MES-1
# Summary of the method: as §1
# [12] = test system: NCI-H522
# Summary of the method: as §1
# [13] = test system: PC-14
# Summary of the method: as §1
# [14] = test system: NCI-H1792
# Summary of the method: as §1
# [15] = test system: NCI-H1915
# Summary of the method: as §1
# [16] = test system: NCI-H1651
# Summary of the method: as §1
# [17] = test system: NCI-H460
# Summary of the method: as §1
# [18] = test system: NCI-H596
# Summary of the method: as §1
# [19] = test system: NCI-H322M
# Summary of the method: as §1
# [20] = test system: LXF-289
# Summary of the method: as §1
# [21] = test system: SW 900
# Summary of the method: as §1
# [22] = test system: NCI-H1355
# Summary of the method: as §1
# [23] = test system: NCI-H441
# Summary of the method: as §1
smiles,measurement,setting,value
Clc1ccc(Nc2nnc(Cc3ccncc3)c3ccccc23)cc1 [Vatalanib] + Nc1ncn([C@H]2C[C@H](O)[C@@H](CO)O2)c(=O)n1 [Decitabine] (partner 2 µM),relative viability,[1]; first compound 0.04 µM,0.616
same,relative viability,[1]; first compound 0.1265 µM,0.62
same,relative viability,[1]; first compound 0.4 µM,0.624
same,relative viability,[1]; first compound 1.265 µM,0.602
same,relative viability,[1]; first compound 4 µM,0.64
same,relative viability,[2]; first compound 0.04 µM,0.715
same,relative viability,[2]; first compound 0.1265 µM,0.722
same,relative viability,[2]; first compound 0.4 µM,0.759
same,relative viability,[2]; first compound 1.265 µM,0.71
same,relative viability,[2]; first compound 4 µM,0.725
same,relative viability,[3]; first compound 0.1265 µM,0.801
same,relative viability,[3]; first compound 0.4 µM,0.539
same,relative viability,[3]; first compound 1.265 µM,0.821
same,relative viability,[3]; first compound 4 µM,0.973
same,relative viability,[4]; first compound 0.04 µM,0.479
same,relative viability,[4]; first compound 0.1265 µM,0.474
same,relative viability,[4]; first compound 0.4 µM,0.488
same,relative viability,[4]; first compound 1.265 µM,0.469
same,relative viability,[4]; first compound 4 µM,0.487
same,relative viability,[5]; first compound 0.04 µM,0.504
same,relative viability,[5]; first compound 0.1265 µM,0.446
same,relative viability,[5]; first compound 0.4 µM,0.581
same,relative viability,[5]; first compound 1.265 µM,0.456
same,relative viability,[5]; first compound 4 µM,0.529
same,relative viability,[6]; first compound 0.04 µM,0.584
same,relative viability,[6]; first compound 0.1265 µM,0.512
same,relative viability,[6]; first compound 0.4 µM,0.544
same,relative viability,[6]; first compound 1.265 µM,0.597
same,relative viability,[6]; first compound 4 µM,0.524
same,relative viability,[7]; first compound 0.04 µM,0.292
same,relative viability,[7]; first compound 0.1265 µM,0.337
same,relative viability,[7]; first compound 0.4 µM,0.306
same,relative viability,[7]; first compound 1.265 µM,0.327
same,relative viability,[7]; first compound 4 µM,0.334
same,relative viability,[8]; first compound 0.04 µM,0.411
same,relative viability,[8]; first compound 0.1265 µM,0.432
same,relative viability,[8]; first compound 0.4 µM,0.406
same,relative viability,[8]; first compound 1.265 µM,0.438
same,relative viability,[8]; first compound 4 µM,0.457
same,relative viability,[9]; first compound 0.04 µM,0.737
same,relative viability,[9]; first compound 0.1265 µM,0.739
same,relative viability,[9]; first compound 0.4 µM,0.866
same,relative viability,[9]; first compound 1.265 µM,0.599
same,relative viability,[9]; first compound 4 µM,0.665
same,relative viability,[10]; first compound 0.04 µM,0.691
same,relative viability,[10]; first compound 0.1265 µM,0.76
same,relative viability,[10]; first compound 0.4 µM,0.745
same,relative viability,[10]; first compound 1.265 µM,0.707
same,relative viability,[10]; first compound 4 µM,0.728
same,relative viability,[11]; first compound 0.04 µM,0.358
same,relative viability,[11]; first compound 0.1265 µM,0.342
same,relative viability,[11]; first compound 0.4 µM,0.415
same,relative viability,[11]; first compound 1.265 µM,0.287
same,relative viability,[11]; first compound 4 µM,0.353
same,relative viability,[12]; first compound 0.04 µM,0.711
same,relative viability,[12]; first compound 0.1265 µM,0.685
same,relative viability,[12]; first compound 0.4 µM,0.698
same,relative viability,[12]; first compound 1.265 µM,0.696
same,relative viability,[12]; first compound 4 µM,0.596
same,relative viability,[13]; first compound 0.04 µM,0.231
same,relative viability,[13]; first compound 0.1265 µM,0.213
same,relative viability,[13]; first compound 0.4 µM,0.219
same,relative viability,[13]; first compound 1.265 µM,0.174
same,relative viability,[13]; first compound 4 µM,0.253
same,relative viability,[14]; first compound 0.04 µM,0.614
same,relative viability,[14]; first compound 0.1265 µM,0.465
same,relative viability,[14]; first compound 0.4 µM,0.608
same,relative viability,[14]; first compound 1.265 µM,0.515
same,relative viability,[14]; first compound 4 µM,0.55
same,relative viability,[15]; first compound 0.04 µM,0.251
same,relative viability,[15]; first compound 0.1265 µM,0.257
same,relative viability,[15]; first compound 0.4 µM,0.273
same,relative viability,[15]; first compound 1.265 µM,0.257
same,relative viability,[15]; first compound 4 µM,0.276
same,relative viability,[16]; first compound 0.04 µM,0.518
same,relative viability,[16]; first compound 0.1265 µM,0.59
same,relative viability,[16]; first compound 0.4 µM,0.495
same,relative viability,[16]; first compound 1.265 µM,0.565
same,relative viability,[16]; first compound 4 µM,0.668
same,relative viability,[17]; first compound 0.04 µM,0.502
same,relative viability,[17]; first compound 0.1265 µM,0.481
same,relative viability,[17]; first compound 0.4 µM,0.482
same,relative viability,[17]; first compound 1.265 µM,0.47
same,relative viability,[17]; first compound 4 µM,0.495
same,relative viability,[18]; first compound 0.04 µM,0.921
same,relative viability,[18]; first compound 0.1265 µM,1.14
same,relative viability,[18]; first compound 0.4 µM,1.22
same,relative viability,[18]; first compound 1.265 µM,1.01
same,relative viability,[18]; first compound 4 µM,1.02
same,relative viability,[19]; first compound 0.04 µM,0.769
same,relative viability,[19]; first compound 0.1265 µM,0.687
same,relative viability,[19]; first compound 0.4 µM,0.786
same,relative viability,[19]; first compound 4 µM,0.663
same,relative viability,[20]; first compound 0.04 µM,0.368
same,relative viability,[20]; first compound 0.1265 µM,0.38
same,relative viability,[20]; first compound 0.4 µM,0.445
same,relative viability,[20]; first compound 1.265 µM,0.361
same,relative viability,[20]; first compound 4 µM,0.352
same,relative viability,[21]; first compound 0.04 µM,0.421
same,relative viability,[21]; first compound 0.1265 µM,0.457
same,relative viability,[21]; first compound 0.4 µM,0.447
same,relative viability,[21]; first compound 1.265 µM,0.423
same,relative viability,[21]; first compound 4 µM,0.425
same,relative viability,[22]; first compound 0.04 µM,0.393
same,relative viability,[22]; first compound 0.1265 µM,0.328
same,relative viability,[22]; first compound 0.4 µM,0.343
same,relative viability,[22]; first compound 1.265 µM,0.33
same,relative viability,[22]; first compound 4 µM,0.356
same,relative viability,[23]; first compound 0.04 µM,0.237
same,relative viability,[23]; first compound 0.1265 µM,0.212
same,relative viability,[23]; first compound 0.4 µM,0.206
same,relative viability,[23]; first compound 1.265 µM,0.228
same,relative viability,[23]; first compound 4 µM,0.242

# From the supplement of paper PMC10307832
